This is an account of results in patent US20090274622A1, “NECROSIS AVID TRACER AGENT” (K.U. Leuven Research & Development, priority 2003, published 2009).

The test system of data set [1] is occlusive myocardial infarction. The data set can be described thus: Tissue radioactivity counting of normal and infarcted rabbit myocardium. Particulars: gamma counting, 48 h.
The test system is the same in data set [2]. Description: In vivo SPECT imaging of rabbit with myocardial infarction. Particulars: 24 and 48 hours post injection.
Experimental: All animal experiments were conducted with the approval of the institutional ethical committee. • 1. […] Occlusive myocardial infarction: A New-Zealand adult rabbit weighing about 5 kg was sedated with intramuscular injection of a mixed solution of Ketalar (ketamine hydrochloride, Pfizer, Brussels, Belgium) at 15 mg/kg and Rompun (xylazine hydrochloride, Bayer, Leverkusen, Germany) at 2.5 mg/kg. The animal was then anaesthetized with an intravenous bolus injection of Nembutal at 15 mg/kg followed by IV infusion of Nembutal at 0.1 mg/kg/min through an ear vein. Under a cold-light laryngoscope with No. 1 pediatric blade (Riester®, Jungingen, Germany), the animal was intubated with a 3.5-mm endotracheal tube, which was then connected to an artificial ventilator (Mark 7 respirator, Bird Corporation, Palm Springs, Calif.). An open chest surgery of left posterolateral thoracotomy was performed. The pericardium was opened to expose the left circumflex coronary artery (LCX). A loose snare loop of a 3-0 silk suture was applied around the artery and tightened with ligature. The chest was closed after evacuation of the pneumothorax.
Two hours after reperfusion of the myocardial infarction, the rabbit was intravenously injected with 130 MBq MIH via an ear vein.
The rabbit imaging measurements were performed using a two-detector gamma camera (E-cam, Siemens Medical Systems, ErIangen, Germany). […]
The test system of data set [3] is HDL and LDL. Particulars: reference 37; cited from earlier work.
For data set [4], the system named is reperfused hepatic infarction. The data set can be described thus: Ex vivo autoradiography of rat liver slices with TTC and H&E staining.
In data set [5] the test system is occlusive myocardial infarction. The data set can be described thus: Ex vivo autoradiography of rabbit heart slices.
Data set [6] concerns reperfused hepatic infarction. The data set can be described thus: Biodistribution of MIH in rats with reperfused hepatic infarction (tissue radioactivity counting). Particulars: for Biodistribution, Blood / Biodistribution, Heart / Biodistribution, Kidneys / Biodistribution, Large intestine / Biodistribution, Lungs / Biodistribution, Muscle / Biodistribution, Necrotic liver / Biodistribution, Normal liver / Biodistribution, Small intestine / Biodistribution, Spleen / Biodistribution, Stomach / Biodistribution, Thyroid / Necrotic liver/Blood ratio / Necrotic liver/Intact liver ratio / Necrotic liver/Muscle ratio: i.v., mean ± SD, n = 3.

The mark [7] stands for this setting: quantification of autoradiography image.

Molecules are shown by their SMILES.

`Cc1cc(O)c2c(=O)c3c(O)cc(O)c4c5c(O)c([123I])c(O)c6c(=O)c7c(O)cc(C)c8c1c2c(c34)c(c78)c65` [MIH, mono-[^123I]iodohypericin]: in data set [1], the “radiotracer concentration in infarcted tissue vs healthy myocardium” value worked out at 7 fold, the “uptake in the infarcted region of myocardium” value was 0.36 % of ID/g and the “uptake in the normal region of myocardium” value is on record as 0.05 % of ID/g. Besides, in data set [2], the “whole body SPECT, coronal section” value was “only one hot spot in the anatomical area of the heart”. For the same compound, the “binding to HDL and LDL in vivo” value in data set [3] is “bind extensively to HDL and LDL”. Besides, in data set [4] (30 min p.i.), the “autoradiography uptake in intact liver” value is on record as “Pronounced radioactivity uptake” and the “autoradiography uptake in necrotic regions of infarcted liver lobe” value was “low uptake of MIH”. Besides, in data set [4] (24 h p.i.), the “autoradiography uptake in intact liver” value was “activity from the intact liver has cleared” and the “autoradiography uptake in necrotic regions of infarcted liver tissue” value is listed as “relatively high uptake of MIH”. In addition, the “autoradiography distribution of radioactive uptake in heart slice” value in data set [5] was “radioactive uptake appears only in the infarcted region”. In data set [5] (setting [7]), the “uptake ratio infarcted tissue limited to subendocardial area vs. control tissue” value was determined as 16 and the “uptake ratio overall infarcted myocardium vs. intact myocardium” value was “about 6”. For the same compound, in data set [6] (24 hours p.i.), the “concentration ratio necrotic liver vs. blood” value was found to be 17 and the “concentration ratio necrotic liver vs. muscle” value was found to be 57. In data set [6] (24 h p.i.), the “concentration in necrotic liver tissue relative to intact liver tissue” value came to 3.2 times; the “in vivo deiodination (thyroid concentration)” value is recorded as “in vivo deiodination of MIH occurs”; the “Biodistribution, Blood” value was 0.10 ± 0.01 % of injected dose per gram tissue; the “Biodistribution, Heart” value was 0.24 ± 0.08 % of injected dose per gram tissue. Also, in data set [6] (24 h p.i.), the “Biodistribution, Kidneys” value is given as 0.18 ± 0.02 % of injected dose per gram tissue; the “Biodistribution, Large intestine” value was 1.47 ± 0.13 % of injected dose per gram tissue; the “Biodistribution, Lungs” value is 1.06 ± 0.30 % of injected dose per gram tissue; the “Biodistribution, Muscle” value is reported as 0.03 ± 0.00 % of injected dose per gram tissue. Moreover, in data set [6] (24 h p.i.), the “Biodistribution, Necrotic liver” value is given as 1.71 ± 0.32 % of injected dose per gram tissue; the “Biodistribution, Normal liver” value is 0.55 ± 0.15 % of injected dose per gram tissue; the “Biodistribution, Small intestine” value was 0.27 ± 0.02 % of injected dose per gram tissue; the “Biodistribution, Spleen” value was 0.43 ± 0.07 % of injected dose per gram tissue. For the same compound, in data set [6] (24 h p.i.), the “Biodistribution, Stomach” value is 0.37 ± 0.13 % of injected dose per gram tissue; the “Biodistribution, Thyroid” value is listed as 9.25 ± 3.25 % of injected dose per gram tissue; the “Necrotic liver/Blood ratio” value is given as 17.40 ± 1.19; the “Necrotic liver/Intact liver ratio” value amounted to 3.18 ± 0.49. Besides, the “Necrotic liver/Muscle ratio” value in data set [6] (24 h p.i.) is listed as 57.09 ± 4.24. In data set [6] (30 min p.i.), the “Biodistribution, Blood” value was 1.34 ± 0.38 % of injected dose per gram tissue; the “Biodistribution, Heart” value is 0.47 ± 0.13 % of injected dose per gram tissue; the “Biodistribution, Kidneys” value is 0.35 ± 0.05 % of injected dose per gram tissue; the “Biodistribution, Large intestine” value is 0.03 ± 0.01 % of injected dose per gram tissue. Moreover, in data set [6] (30 min p.i.), the “Biodistribution, Lungs” value was 1.60 ± 0.58 % of injected dose per gram tissue; the “Biodistribution, Muscle” value was 0.03 ± 0.01 % of injected dose per gram tissue; the “Biodistribution, Necrotic liver” value is given as 1.91 ± 0.46 % of injected dose per gram tissue; the “Biodistribution, Normal liver” value is given as 3.80 ± 1.39 % of injected dose per gram tissue. In data set [6] (30 min p.i.), the “Biodistribution, Small intestine” value is 0.09 ± 0.03 % of injected dose per gram tissue; the “Biodistribution, Spleen” value is reported as 2.19 ± 0.18 % of injected dose per gram tissue; the “Biodistribution, Stomach” value is recorded as 0.03 ± 0.00 % of injected dose per gram tissue; the “Biodistribution, Thyroid” value was 0.16 ± 0.02 % of injected dose per gram tissue. For the same compound, in data set [6] (30 min p.i.), the “Necrotic liver/Blood ratio” value was found to be 1.44 ± 0.10, the “Necrotic liver/Intact liver ratio” value stood at 0.57 ± 0.28 and the “Necrotic liver/Muscle ratio” value amounted to 75.80 ± 16.34.

In the case of `Cc1cc(O)c2c(=O)c3c(O)cc(O)c4c5c(O)cc(O)c6c(=O)c7c(O)cc(C)c8c1c2c(c34)c(c78)c65` [hypericine, hypericin, reference compound], the “binding to HDL and LDL in vivo” value in data set [3] was “bind extensively to HDL and LDL”.
